We go through two molecules from patent US20190091189A1, “ADMINISTRATION OF EXOGENOUS KETONE TO LOWER BLOOD GLUCOSE” (priority 2016, published 2019).

Assay [1] is described as follows: Chronic feeding (83 days) of ketone supplements, blood βHB and glucose. It counts as in vivo, Sprague-Dawley rats. The following applies: SPD rats, after 83 days of chronic feeding (~25 g/kg b.w./day), compared to control. From the text: A total of 48 male SPD rats were fed for 83 days with either standard rodent chow (2018 Teklad Global 18% Protein Rodent Diet (#2018), Harlan) standard diet (SD)/control; n=9) or SD+ketone supplementation. Four treatment animal groups included low-dose KE (˜10 g/kg b.w./day, Low-dose ketone ester (LKE); n=10), high-dose KE (˜25 g/kg b.w./day, high dose ketone ester (HKE); n=10), KS (˜25 g/kg b.w./day, KS; n=9) and KSMCT (˜25 g/kg b.w./day, KSMCT; n=10).
(§1) In the chronic feeding study, blood βHB and glucose levels were measured 24 h before the 1st day of ketone treatments (baseline levels) and at 13th week. In the 7 day oral gavage studies, blood βHB and glucose levels were measured 24 h before the 1st day of ketone treatments (baseline levels; SPD and WAG/Rij rats), 24 h after the first gavage and 60 min after gavage on the 7th day (SPD and WAG/Rij rats). Whole blood samples (10 μL) were taken from the saphenous vein for analysis of blood glucose (mg/dl) and βHB (mmol/1) levels with the commercially available glucose and ketone (βHB) monitoring system Precision Xtra™ (Abbott Laboratories, Abbott Park, Ill., USA).

The nature of assay [2]: Sub-chronic oral gavage (7 days), blood βHB and glucose, without exercise. It counts as in vivo, Sprague-Dawley rats. The note with it: SPD rats, 5 g/kg b.w./day gavage.
Text: (§2) In order to familiarize the animals to the intragastric gavage method, water was gavaged for 5 days before ketone supplementation. Following the adaptation period to the intragastric gavage method, 39 male SPD rats were fed with standard diet, and gavaged daily with 5 g/kg b.w./day water (SD/control; n=11) or ketone supplements KE (n=9), KS (n=9), KSMCT (n=10) sub-chronically for 7 days. In addition, following the adaptation period to the intragastric gavage method, WAG/Rij male rats (n=32) were fed with SD and gavaged sub-chronically with about 2.5 g/kg b.w./day water (SD/control; n=8), KE (n=8), KS (n=8) or KSMCT (n=8) for 7 days.
as §1

A short description of assay [3]: Multiple treatment (7 days) and rotarod exercise, blood βHB and glucose. It counts as in vivo, Sprague-Dawley rats. The note with it: exercised SPD rats. An excerpt:
Four month old Sprague-Dawley rats were first acclimated to oral gavage with administration of tap water once daily for a period of 5 days. The rats were then divided into 5 groups, and fed either a standard diet (SD), a ketogenic diet (KD), or a standard diet supplemented with a once daily oral gavage of a ketogenic compound as outlined in Table 1. The ketogenic compound was selected from 1,3-butanediol-acetoacetate diester (SD+KE), β-hydroxybutyrate mineral salt (SD+KS), or β-hydroxybutyrate mineral salt and a medium chain triglyceride (SD+KSMCT). The above ketogenic compounds were provided at a dose of 5 g/kg of body weight.
Each group of animals was maintained on the respective dietary conditions for 7 days. Whole blood samples (10 μL) were collected from the saphenous vein of rats. The levels of blood glucose (mg/dL) and β-hydroxybutyrate (mmol/L) were measured with the commercially available glucose monitoring system PRECISION XTRA® (Abbott Laboratories, Abbott Park, Ill., USA). It is noted that the PRECISION XTRA® only measures β-hydroxybutyrate levels, therefore total blood ketone levels may be higher than measured.
Rats were exercised on a Rota Rod Rotamex 5 (Columbus Instruments). Animals were exercised on the rotarod for 5 consecutive days before treatment began in order to acclimate to the equipment and the task. The rats were placed on rods of the accelerating rotarod and the time the animals remained on the rotarod was measured. The rotarod was set to accelerate to 40 rpm in 180 seconds. Each training and testing consisted of 3 trials, with a 2 minute rest period between each trial. Animals were placed on the rotarod and timed until they fell from the rotating rod. The animals were evaluated on the rotarod exercise test after the 5 days training period but prior to the beginning of dietary treatment (baseline), 24 hours after treatment, and after 7 days of dietary treatment.
The animals were evaluated for blood levels of glucose and ketone bodies β-hydroxybutyrate), prior to the beginning of dietary treatment, 24 hours after treatment, and after 7 days of dietary treatment.

A short description of assay [4]: 10-week feeding of G1D mice, blood ketone and glucose. The following applies: fed for 10 weeks, 10% KE or 20% KS in standard diet, or ketogenic diet. It counts as in vivo. As for the experimental part:
GLUT1 deficiency syndrome (G1D) is characterized by impaired glucose transport in the brain and diagnosed with CSF glucose value of <2.2 mmol/L. There is no cure for G1D, but the ketogenic diet (KD) is often effective for the drug-resistant seizures and impairment of motor function associated with the disease. The effect of ketogenic compounds on blood glucose levels was assessed in glucose transporter type 1 (G1D)-deficient mice. A group of 48 G1D mice, aged 2-5 months old, were fed for 10 weeks with either a standard rodent diet (SD), a ketogenic diet (KD), a standard diet supplemented with 10% ketone ester (SD+KE) or a standard diet supplemented with 20% ketone mineral salt (SD+KS).

The nature of assay [5]: Sub-chronic oral gavage (7 days), blood βHB and glucose, without exercise. It counts as in vivo. The following applies: WAG/Rij rats; for blood βHB: about 2.5 g/kg b.w./day, after 7 days of gavage, compared to baseline, 24 h and control.
Text: as §2, §1

[6] abbreviates: 5 g/kg once daily gavage (or ketogenic diet), 24 hours after treatment.
Setting [7] is: 5 g/kg once daily gavage (or ketogenic diet), after 24 hours, compared to baseline.
Where [8] appears, read: 5 g/kg once daily gavage (or ketogenic diet), after 7 days.
Setting [9] is: 5 g/kg once daily gavage, after 7 days.

Take `CC(=O)CC(=O)OCCC(C)OC(=O)CC(C)=O` (centres unmarked) [KE, 1,3-butanediol-acetoacetate diester]: the “blood βHB levels” value in assay [1] is listed as “significantly elevated”; in assay [2] (24 h after a single gavage, compared to control) it was “elevated”. Besides, the blood glucose levels result in assay [2] (at 24 h, compared to control) is listed as “lower”. Further, the entries for the “blood βHB after exercise” value in assay [3] (setting [6]) and in assay [3] (setting [8]) were “elevated levels” and “trend towards baseline levels”, respectively. For the same molecule, the “blood glucose levels after exercise” value is recorded as “reduce blood glucose levels” in assay [3] (setting [7]) and “trended towards baseline” in assay [3] (setting [9]). In addition, in assay [4], the blood glucose level result was “quickly dropped and remained the lowest”. Besides, the blood ketone level entry in assay [4] is “slow and slight elevation”. In assay [5] (about 2.5 g/kg b.w./day gavage, after 24 h, compared to baseline and control group), the glucose levels entry was “lower”. The “blood βHB” value in assay [5] is on record as “elevated”.

On to “Na^+/K^+-β-hydroxybutyrate mineral salt [KS]”, for which, in assay [1], the “blood βHB levels” value is “significantly elevated”. Moreover, the “blood βHB” value in assay [2] (7 days, compared to control group) is “elevated”; in assay [5], “elevated”. Further, the “blood βHB after exercise” value is on record as “no change” in assay [3] (setting [6]) and “significant increase” in assay [3] (setting [8]). For the same molecule, the “blood glucose levels after exercise” value is listed as “increase” in assay [3] (setting [7]) and “decline towards baseline” in assay [3] (setting [9]). For the same molecule, in assay [4], the blood glucose level entry is listed as “early decrease”. Also, in assay [4], the blood ketone level result is “significant and rapid elevation”.
